From ChEMBL document CHEMBL4387741, “Optimization of novel reversible Bruton's tyrosine kinase inhibitors identified using Tethering-fragment-based screens” (Bioorg Med Chem, 2019)

Key:
[1] = biological target: Activin receptor type-1 (Homo sapiens) (UniProt Q04771); assay: Inhibition of wild-type human ACVR1 (C188 to C509 residues) expressed in bacterial expression system at 1 uM by Kinomescan method relative to control
[2] = biological target: Tyrosine-protein kinase BTK (Homo sapiens, UniProt Q06187); assay: Inhibition of wild-type human full length BTK (M1 to S659 residues) expressed in mammalian expression system at 1 uM by Kinomescan method relative to control
[3] = biological target: CDK4/Cyclin D3 (Homo sapiens) (UniProt P11802+P30281); assay: Inhibition of wild-type human full length CDK4/cyclinD3 (M1 to E303 residues) expressed in mammalian expression system at 1 uM by Kinomescan method relative to control
[4] = biological target: Fibroblast growth factor receptor 4 (Homo sapiens) (UniProt P22455); assay: Inhibition of wild-type human partial length FGFR4 (G402 to E713 residues) expressed in bacterial expression system at 1 uM by Kinomescan method relative to control
[5] = biological target: Mitogen-activated protein kinase kinase kinase 10 (Homo sapiens) (UniProt Q02779); assay: Inhibition of wild-type human partial length MLK2 (V52 to W380 residues) expressed in bacterial expression system at 1 uM by Kinomescan method relative to control
[6] = biological target: Serine/threonine-protein kinase MRCK beta (Homo sapiens) (UniProt Q9Y5S2); assay: Inhibition of wild-type human partial length MRCKB (L56 to S417 residues) expressed in bacterial expression system at 1 uM by Kinomescan method relative to control
[7] = biological target: Serine/threonine-protein kinase PAK 6 (Homo sapiens) (UniProt Q9NQU5); assay: Inhibition of wild-type human partial length PAK6 (N298 to C681 residues) expressed in bacterial expression system at 1 uM by Kinomescan method relative to control
[8] = biological target: Platelet-derived growth factor receptor beta (Homo sapiens) (UniProt P09619); assay: Inhibition of wild-type human partial length PDGFRB (V582 to Y1009 residues) expressed in bacterial expression system at 1 uM by Kinomescan method relative to control
[9] = biological target: Phosphatidylinositol 3-kinase C2 domain-containing subunit gamma (Homo sapiens) (UniProt O75747); assay: Inhibition of wild-type human partial length PIK3C2G (M1 to I1446 residues) expressed in mammalian expression system at 1 uM by Kinomescan method relative to control
[10] = biological target: Serine/threonine-protein kinase pim-1 (Homo sapiens) (UniProt P11309); assay: Inhibition of wild-type human partial length PIM1 (A15 to K313 residues) expressed in bacterial expression system at 1 uM by Kinomescan method relative to control
[11] = biological target: Protein kinase C theta type (Homo sapiens) (UniProt Q04759); assay: Inhibition of wild-type human partial length PRKCQ (L350 to S706 residues) expressed in bacterial expression system at 1 uM by Kinomescan method relative to control
[12] = biological target: RAF proto-oncogene serine/threonine-protein kinase (Homo sapiens) (UniProt P04049); assay: Inhibition of wild-type human partial length RAF1 (I330 to T640 residues) expressed in bacterial expression system at 1 uM by Kinomescan method relative to control
[13] = biological target: Dual specificity protein kinase TTK (Homo sapiens) (UniProt P33981); assay: Inhibition of wild-type human partial length TTK (N505 to V798 residues) expressed in bacterial expression system at 1 uM by Kinomescan method relative to control
[14] = biological target: Serine/threonine-protein kinase ULK2 (Homo sapiens) (UniProt Q8IYT8); assay: Inhibition of wild-type human partial length ULK2 (M1 to S301 residues) expressed in mammalian expression system at 1 uM by Kinomescan method relative to control
[15] = Plasma clearance in Sprague-Dawley rat at 1 mg/kg, iv; assay type: ADME, organism-based
[16] = biological target: Fibroblast growth factor receptor 1 (Homo sapiens) (UniProt P11362); assay: Inhibition of wild-type human partial length FGFR1 (P357 to V669 residues) expressed in bacterial expression system at 10 uM by Kinomescan method relative to control
[17] = biological target: Rhodopsin kinase GRK7 (Homo sapiens) (UniProt Q8WTQ7); assay: Inhibition of wild-type human full length GRK7 (M1 to L553 residues) expressed in mammalian expression system at 10 uM by Kinomescan method relative to control
[18] = biological target: Mitogen-activated protein kinase kinase kinase 15 (Homo sapiens) (UniProt Q6ZN16); assay: Inhibition of wild-type human partial length MAP3K15 (T625 to L932 residues) expressed in mammalian expression system at 10 uM by Kinomescan method relative to control
[19] = biological target: Tyrosine-protein kinase Mer (Homo sapiens) (UniProt Q12866); assay: Inhibition of wild-type human partial length MERTK (R557 to L884 residues) expressed in bacterial expression system at 10 uM by Kinomescan method relative to control
[20] = tested on: Hepatocyte growth factor receptor (Homo sapiens), P08581 [M1250T]; assay: Inhibition of human partial length MET M1250T mutant (D1010 to S1367 residues) expressed in bacterial expression system at 10 uM by Kinomescan method relative to control
[21] = biological target: MAP kinase-interacting serine/threonine-protein kinase 1 (Homo sapiens) (UniProt Q9BUB5); assay: Inhibition of wild-type human full length MKNK1 (M1 to L424 residues) expressed in mammalian expression system at 10 uM by Kinomescan method relative to control
[22] = biological target: Serine/threonine-protein kinase Nek10 (Homo sapiens) (UniProt Q6ZWH5); assay: Inhibition of wild-type human partial length NEK10 (L488 to R809 residues) expressed in mammalian expression system at 10 uM by Kinomescan method relative to control
[23] = biological target: Serine/threonine-protein kinase PAK 3 (Homo sapiens) (UniProt O75914); assay: Inhibition of wild-type human full length PAK3 (M1 to R544 residues) expressed in bacterial expression system at 10 uM by Kinomescan method relative to control
[24] = biological target: Cyclin-dependent kinase 17 (Homo sapiens) (UniProt Q00537); assay: Inhibition of wild-type human full length PCTK2 (M1 to F523 residues) expressed in bacterial expression system at 10 uM by Kinomescan method relative to control
[25] = biological target: Phosphatidylinositol 4-phosphate 5-kinase type-1 alpha (Homo sapiens) (UniProt Q99755); assay: Inhibition of wild-type human full length PIP5K1A (M1 to H562 residues) expressed in bacterial expression system at 10 uM by Kinomescan method relative to control
[26] = biological target: Serine/threonine-protein kinase D3 (Homo sapiens) (UniProt O94806); assay: Inhibition of wild-type human partial length PRKD3 (S543 to E863 residues) expressed in bacterial expression system at 10 uM by Kinomescan method relative to control
[27] = biological target: Serine/threonine-protein kinase SBK1 (Homo sapiens) (UniProt Q52WX2); assay: Inhibition of wild-type human partial length SBK1 (P23 to P348 residues) expressed in mammalian expression system at 10 uM by Kinomescan method relative to control

## O=C(Nc1cccc([C@@H]2CN(c3ncnc4[nH]ccc34)CCN2CCO)c1)Nc1c(F)cccc1N1CCCC1
[1]
  inhibition: 100%
[2]
  inhibition: 0.3%
[3]
  inhibition: 100%
[4]
  inhibition: 100%
[5]
  inhibition: 74%
[6]
  inhibition: 100%
[7]
  inhibition: 100%
[8]
  inhibition: 42%
[9]
  inhibition: 95%
[10]
  inhibition: 86%
[11]
  inhibition: 95%
[12]
  inhibition: 86%
[13]
  inhibition: 98%
[14]
  inhibition: 39%
[15]
  clearance: 6.2 mL/min/kg

## O=C(Nc1cccc([C@H]2CCCN(c3ncnc4[nH]ccc34)C2)c1)Nc1ccccc1N1CCCC1
[16]
  inhibition: 36%
[17]
  inhibition: 80%
[18]
  inhibition: 50%
[19]
  inhibition: 31%
[20]
  inhibition: 97%
[21]
  inhibition: 55%
[22]
  inhibition: 4.3%
[23]
  inhibition: 4.8%
[24]
  inhibition: 97%
[25]
  inhibition: 5.1%
[26]
  inhibition: 100%
[27]
  inhibition: 42%
